Experimental data taken from paper PMC9572521, “Synthesis, Docking Studies and Pharmacological Evaluation of Serotoninergic Ligands Containing a 5-Norbornene-2-Carboxamide Nucleus” (Molecules, 2022).
pEC50, pIC50, pKi: −log10 of the molar value. Entries after “also recorded” stand apart in the source; their conditions may differ. Read-outs that look alike come from different tables or passages of the source.

Columns and labels:
mice [1] = assay: Chimney test (motor coordination); format: in vivo, mouse; conditions: 30 mg/kg i.p., 60 min before the test
Procedure: (§1) The experiments were carried out, in the Experimental Medicine Center of Medical University of Lublin, on six-week-old naive male Swiss mice, weighing 24–30 g. The mice were housed in cages, five individuals per cage in an environmentally controlled rooms (ambient temperature 22 ± 1 °C; relative humidity 50–60%; 12 h light/dark cycle, lights on at 8:00). Standard laboratory food(LSM-Agropol-Motycz, Lublin, Poland) and filtered water were available ad libitum. All the experimental procedures were carried out, according to the National Institute of Health Guidelines for the Care and Use of Laboratory Animals and to the European Community Council Directive for the Care and Use of Laboratory Animals of 22 September 2010 (2010/63/EU) and approved by the Local Ethics Committee for Animal Experimentation in Lublin. The investigated compounds (Norbo-4, Norbo-8, Norbo-10, Norbo-14, Norbo-18 and Norbo-20) in all tests were administered intraperitoneally (i.p.), dissolved in dimethyl sulfoxide (DMSO, final concentration of 0.1%) and then diluted by aqueous solution of 0.5% methylcellulose (tylose) and injected 60 min before the tests. […] All compounds were given in a volume of 10 mL/kg to mice. The control animals received an equivalent volume of the solvent at the respective time before the tests. All the experiments were conducted in the light phase between 09.00 a.m. and 14.00 p.m. The experiments were performed by an observer unaware of the treatment administered. The effects of investigated compounds on motor coordination were evaluated in the rota-rod and chimney tests. In the first test, motor impairments were measured, defined as the inability to keep balance on a rotating rod (at constant speed of 18 rpm) for 1 min. In the second test, motor impairments were assessed by mouse inability to climb up the tube backwards (3 cm in inner diameter, 25 cm long) within 60 s. Before the tests, the animals were trained once a day for 3 days. The animals able to stay on the rotating rod or to leave the chimney for 60 s were approved for experiments.

[2] = system: 5-HT2A receptors (5-HT-induced contractions in the rat ileum); assay: 5-HT-evoked contractions of isolated rat ileum; conditions: 5-HT 10^−5 M; compounds 10^−8–10^−5 M
D2 receptor = target: T1, D2 receptor (Rattus norvegicus, UniProt P61169); assay: Functional D2 receptor [35S]GTPγS assay (antagonist mode vs dopamine; basal for agonism); format: biochemical; conditions: against 40 µM dopamine, rat striatal homogenate; read-out: D2 receptor antagonistic activity IC50 (95% CI);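 note: [35S]GTPγS binding counted by scintillation after 60 min at 30 °C, nonspecific binding defined with 100 µM unlabeled GTPγS, inhibition curves fitted by one-site nonlinear regression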
T1 construct: 15μg/mL of striatal homogenate was incubated in triplicate; from tissue; host or cells: rat striatum homogenate
T1 sequence (P61169 whole entry): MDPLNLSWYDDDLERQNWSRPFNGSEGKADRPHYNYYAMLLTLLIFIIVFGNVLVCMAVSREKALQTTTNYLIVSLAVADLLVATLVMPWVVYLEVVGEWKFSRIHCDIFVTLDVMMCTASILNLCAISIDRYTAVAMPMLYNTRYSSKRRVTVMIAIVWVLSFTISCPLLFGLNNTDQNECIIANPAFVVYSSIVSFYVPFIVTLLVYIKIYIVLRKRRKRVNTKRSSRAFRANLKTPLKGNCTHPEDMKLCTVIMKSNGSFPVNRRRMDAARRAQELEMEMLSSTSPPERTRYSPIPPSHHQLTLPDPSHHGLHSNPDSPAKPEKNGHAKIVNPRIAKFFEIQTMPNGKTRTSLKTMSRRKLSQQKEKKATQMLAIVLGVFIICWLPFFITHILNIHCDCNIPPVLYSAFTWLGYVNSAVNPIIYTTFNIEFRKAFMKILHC

mice [3] = assay: Rota-rod test (motor coordination); format: in vivo, mouse; conditions: 30 mg/kg i.p., 60 min before the test
Procedure: as §1

mice [4] = assay: Spontaneous locomotor activity; format: in vivo, mouse
human 5-HT2C receptor = target: T2, human 5-HT2C receptor (Homo sapiens, UniProt P28335); assay: 5-HT2C competition binding assay ([3H]mesulergine, transfected cell membranes); conditions: [3H]mesulergine, human 5-HT2C membranes; read-out: 5-HT2C Ki (95% CI)
T2 sequence (P28335 33-458): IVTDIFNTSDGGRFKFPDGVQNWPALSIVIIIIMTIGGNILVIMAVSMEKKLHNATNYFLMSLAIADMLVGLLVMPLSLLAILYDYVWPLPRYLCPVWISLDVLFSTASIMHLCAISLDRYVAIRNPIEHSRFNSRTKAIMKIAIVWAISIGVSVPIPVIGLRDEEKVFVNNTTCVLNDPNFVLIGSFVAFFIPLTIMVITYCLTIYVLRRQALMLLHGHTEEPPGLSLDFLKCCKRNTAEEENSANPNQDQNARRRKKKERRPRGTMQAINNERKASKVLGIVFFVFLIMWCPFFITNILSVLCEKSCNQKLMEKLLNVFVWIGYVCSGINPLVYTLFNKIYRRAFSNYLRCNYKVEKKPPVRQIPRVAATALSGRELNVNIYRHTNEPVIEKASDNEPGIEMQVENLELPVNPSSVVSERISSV

5-HT2A receptor = 5-HT2A receptor (Rattus norvegicus, UniProt P14842); assay: 5-HT2A competition binding assay ([3H]ketanserin, frontal cortex homogenates)
Chain of 5-HT2A receptor (P14842 whole entry): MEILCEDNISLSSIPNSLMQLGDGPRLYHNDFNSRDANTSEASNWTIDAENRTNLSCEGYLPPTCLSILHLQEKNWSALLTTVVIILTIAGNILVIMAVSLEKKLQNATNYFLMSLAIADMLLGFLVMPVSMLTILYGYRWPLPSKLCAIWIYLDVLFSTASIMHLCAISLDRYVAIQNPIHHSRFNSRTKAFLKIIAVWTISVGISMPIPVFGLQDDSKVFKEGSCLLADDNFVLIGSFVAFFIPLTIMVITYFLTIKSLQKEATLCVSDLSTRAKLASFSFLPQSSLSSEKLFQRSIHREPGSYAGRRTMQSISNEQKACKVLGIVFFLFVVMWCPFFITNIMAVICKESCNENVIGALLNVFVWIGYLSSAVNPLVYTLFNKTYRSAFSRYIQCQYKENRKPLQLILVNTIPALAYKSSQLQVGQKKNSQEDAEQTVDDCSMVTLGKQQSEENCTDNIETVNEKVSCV

5-HT1A receptor = target: T3, 5-HT1A receptor (Rattus norvegicus, UniProt P19327); assay: Functional 5-HT1A receptor [35S]GTPγS assay (agonist mode); format: biochemical; conditions: [35S]GTPγS, rat hippocampus homogenate;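 note: male Sprague-Dawley rat hippocampal membranes incubated 90 min at 37 °C, bound label counted by scintillation after filtration, non-specific binding defined with 100 µM unlabeled GTPγS, one-site curve fit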
T3 construct: 15 μg/mL of hippocampus homogenate was incubated in triplicate with 0.8 nM; from tissue; host or cells: rat hippocampus homogenate
T3 sequence (P19327 1-422): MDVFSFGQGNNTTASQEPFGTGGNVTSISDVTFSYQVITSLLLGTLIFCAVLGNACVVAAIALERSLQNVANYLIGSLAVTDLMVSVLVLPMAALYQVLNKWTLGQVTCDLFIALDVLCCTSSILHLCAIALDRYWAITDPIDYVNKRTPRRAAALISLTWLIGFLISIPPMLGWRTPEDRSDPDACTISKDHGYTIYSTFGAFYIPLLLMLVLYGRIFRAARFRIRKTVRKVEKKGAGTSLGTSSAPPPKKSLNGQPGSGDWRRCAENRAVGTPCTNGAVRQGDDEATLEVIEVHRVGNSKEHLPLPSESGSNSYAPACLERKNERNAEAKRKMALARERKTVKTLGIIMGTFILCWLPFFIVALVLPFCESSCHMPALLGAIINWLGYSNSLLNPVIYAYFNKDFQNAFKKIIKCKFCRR

mice [5] = assay: Forced swim test (FST, Porsolt's test); format: in vivo, mouse; conditions: 15 mg/kg i.p., 60 min before the test
Procedure: as §1, with “The experiment was carried out according to the method” for “The effects”, “of Porsolt et al.. Mice were individually placed in a glass cylinder (25 cm high; 10 cm in diameter) containing water maintained at 23–25 °C, and were left there for 6 min. The total duration of immobility was recorded during the last 4 min of a 6-min test session. A mouse was regarded as immobile when it remained floating” for “of investigated compounds”, “on” for “on motor coordination were evaluated in”, “the water, making only small movements” for “the rota-rod and chimney tests. In the first test, motor impairments were measured, defined as the inability”, “keep its head above” for “keep balance on a rotating rod (at constant speed of 18 rpm) for 1 min. In”, “the water.” for “the second test, motor impairments were assessed by mouse inability to climb up the tube backwards (3 cm in inner diameter, 25 cm long) within 60 s. Before the tests, the animals were trained once a day for 3 days. The animals able to stay on the rotating rod or to leave the chimney for 60 s were approved for experiments.”

[6] = 30 mg/kg i.p., after 6 min of observation
[7] = 30 mg/kg i.p., after 20 min of observation

| SMILES | time in chimney (mice [1]) | Emax, maximal inhibitory effect on 5-HT-induced contractions in the rat ileum [2] | pIC50 (D2 receptor) | time on rota-rod (mice [3]) | spontaneous locomotor activity (mice [4]; 15 mg/kg i.p., after 20 min of observation) | spontaneous locomotor activity (mice [4]; [6]) | spontaneous locomotor activity (mice [4]; [7]) | pKi (human 5-HT2C receptor) | pKi (5-HT2A receptor; read-out: 5-HT2A Ki (95% CI)) | 5-HT1A Receptor G-Protein Stimulation pEC50 (5-HT1A receptor; ± SEM) | immobility time in FST (mice [5]) | Ki (5-HT2A receptor; ± SEM, read-out: 5-HT2A pKi (converted)) | 5-HT1A Receptor G-Protein Stimulation Emax (%) ± SEM (5-HT1A receptor) | pEC50 (5-HT1A receptor; read-out: 5-HT1A Receptor G-Protein Stimulation EC50 (95% CI)) |
| --- | --- | --- | --- | --- | --- | --- | --- | --- | --- | --- | --- | --- | --- | --- |
| O=C(NCCCN1CCN(c2ccc(Cl)c(Cl)c2)CC1)C1CC2C=CC1C2 (stereo not drawn) [Norbo-14, endo-N-(3-(4-(3,4-dichlorophenyl)piperazin-1-yl)propyl)bicyclo[2.2.1]hept-5-ene-2-carboxamide] | significant increase of time in chimney; also recorded: disturbed the behavior of mice | 22.57% | 4.39 | decreased also time on rota-rod; also recorded: impaired motor coordination | significant decrease in locomotor activity | significant decrease in locomotor activity | significant decrease in locomotor activity | 5.44 | 7.75 | no activity | – | – | – | – |
| O=C(NCCCN1CCN(c2ccc(F)cc2)CC1)C1CC2C=CC1C2 (stereo not drawn) [Norbo-18, endo.-N-(3-(4-(4-fluorophenyl)piperazin-1-yl)propyl)bicyclo[2.2.1]hept-5-ene-2-carboxamide] | significant increase of time in chimney; also recorded: disturbed the behavior of mice | 25.28% | 4.08 | decreased also time on rota-rod; also recorded: impaired motor coordination | – | significant decrease in locomotor activity | significant decrease in locomotor activity | 6.67 | – | – | significant reduction in immobility time; also recorded: significant reduction of immobility time | 18.6 nM | 143 ± 5.1 ^&&& % | 5.63 |
